Where two headings read alike, the source gives them in different places. No end group written: not given here.
Key:
[1] = tested on: Escherichia coli (ATCC 25,922); set-up: method as in our previous study [6]; settings: E. coli; ref our previous study [6]; cited from earlier work
C. albicans [2] = experiment: Ergosterol binding assay (MIC in presence and absence of ergosterol); type: cell-based, Candida albicans
Method: An ergosterol binding assay was performed to measure the binding potency of peptides to fungal membrane sterols. For this purpose, the ergosterol was dissolved in DMSO and Tween-20, it was heated to increase the solubility of the formed emulsion and diluted in an SDB medium at a concentration of […] and incubated at 37 °C for 1 h. After that, MIC of the AurH1, Ac-AurH1, and AurH1-NH2 peptides was measured by the micro-dilution method in the presence and absence of ergosterol in different concentrations ([…]) against C. albicans.

C. albicans [3] = experiment: Killing kinetic assay (time of killing); type: cell-based, Candida albicans; settings: 1X MIC concentration
[4] = tested on: Candida krusei (ATCC 28,870); set-up: method as in our previous study [6]; settings: C. krusei; ref our previous study [6]; cited from earlier work
[5] = tested on: Candida albicans (ATCC 10,231); set-up: method as in our previous study [6]; settings: C. albicans; ref our previous study [6]; cited from earlier work
[6] = tested on: Candida glabrata (ATCC 90,030); set-up: method as in our previous study [6]; settings: C. glabrata; ref our previous study [6]; cited from earlier work
C. albicans [7] = tested on: C. albicans; set-up: method as in PMID 31264322; settings: cited from earlier work
C. albicans [8] = experiment: Effect of salts and human serum on antimicrobial activity (MIC); type: cell-based, Candida albicans
Method: To evaluate the effect of salts and human serum on the antimicrobial activity of the AurH1-NH2 and AurH1 peptides, their antimicrobial activity (MICs values) against C. albicans under different conditions containing salt and human serum was determined. Therefore, mid-logarithmic phase yeasts diluted to 5 × 10^5 CFU/ml in SDB were added to related media containing different concentrations of human serum (10%, 20%, and 30%) and salts (150 mM NaCl and 1mM MgCl2), and incubated at 37 °C for 24 h.

[9] = tested on: Aspergillus flavus (ATCC 24,109); set-up: method as in our previous study [6]; settings: A. flavus; ref our previous study [6]; cited from earlier work
[10] = tested on: Staphylococcus aureus (ATCC 25,923); set-up: method as in our previous study [6]; settings: S. aureus; ref our previous study [6]; cited from earlier work
human red blood cells = type: cell-based; settings: 1 h
Method: A hemolytic assay was performed to investigate the effects of peptides on human red blood cells. First, 5 ml of fresh human blood was taken from a volunteer. After that, 20% (v/v) suspension of human erythrocytes was prepared and diluted in PBS (1:20). Next, 100 µL of this blood suspension was added in triplicate to 100 µL of a 2-fold serial dilution series of the peptide in a 96‐well plate. 1% Triton-X 100 was used as a positive control to lyse 100% of RBCs, and sterile 0.9% NaCl solution was used as a negative control. Then the plates were incubated at 37 °C for 1 h and centrifuged at 3500 rpm for 10 min. Next, 100 µL of the supernatant was transferred to a new 96-well plate to measure the absorbance at 414 nm using a microplate reader (STAT FAX 2100, BioTek, Winooski, USA). Finally, the percentage of hemolysis was calculated as follows: […]

[11] = tested on: Aspergillus niger (ATCC 9142); set-up: method as in our previous study [6]; settings: A. niger; ref our previous study [6]; cited from earlier work

For WFKIIKK [AurH1, WFKIIKK], the MIC [1] is listed as > 1000 µg/mL, the MIC (C. albicans [2]; after treatment with Ergosterol (Erg)) is listed as 15.6 µg/mL and the MIC (C. albicans [2]; before treatment with Ergosterol (substance alone)) is listed as 15.6 µg/mL. The “time to kill all C. albicans (maximum fungicidal effect)” value (C. albicans [3]) was 24 h, the “MBC (MFC)” value [4] was 250 µg/mL and the MIC [4] was 31.25 µg/mL. The “MBC (MFC)” value [5] was 125 µg/mL, the MIC [5] was 15.625 µg/mL and the “MBC (MFC)” value [6] was 500 µg/mL. For the same substance, the MIC [6] was 125 µg/mL, the “combinatorial effect (in words)” value (C. albicans [7]; in combination with amphotericin B) was “synergistic effects” and the “combinatorial effect (in words)” value (C. albicans [7]; in combination with fluconazole) was “synergistic effects”. The MIC (C. albicans [8]; SDB) was 15.6 µg/mL, the MIC (C. albicans [8]; SDB + 10% serum (human)) was 15.6 µg/mL and the MIC (C. albicans [8]; SDB + 20% serum (human)) was 62.5 µg/mL. For the same substance, the MIC (C. albicans [8]; SDB + 30% serum (human)) was 125 µg/mL, the MIC (C. albicans [8]; SDB + MgCl2 (1 mM)) was 15.6 µg/mL and the MIC (C. albicans [8]; SDB + NaCl (150 mM)) was 15.6 µg/mL. For the same substance, the MIC [9] was > 1000 µg/mL, the MIC [10] was > 1000 µg/mL and the “HC50 (concentration that lyses 50% of red blood cells)” value (human red blood cells) was 13,484 µg/ml. For the same substance, the “MBC (MFC)” value [11] was 500 µg/mL and the MIC [11] was 125 µg/mL.

Source: paper PMC10633902, “Investigating the antimicrobial activity, cytotoxicity, and action mechanism of acylated and amidated derivatives of AurH1 antifungal peptide” (BMC Microbiology, 2023)
